Reference: patent publication US11559512B2, “Composition for prevention, alleviation, and/or treatment of heat illness” (priority 2017, dated 2023)
Entries after “also recorded” stand apart in the source; their conditions may differ.

Tests used:
[1] = test system: human vascular endothelial cells (HUVECs)
Protocol: Then, 2 mL of trypsin/EDTA was added to the cells, and the cells were detached by incubation at 37° C. in a 5% CO2 environment. After the cell detachment, 5 mL/dish of a culture medium was added, and the cells were transferred to a 15-mL tube and centrifuged at 1200 rpm for 5 minutes in a centrifuge. The supernatant was removed, and then, the number of cells was adjusted to a cell density of 5×10^4 cells/mL using a cell counting kit by the addition of 5 mL of a culture medium. Then, two 6-well plates were used, and the solution with the adjusted HUVEC density was inoculated at 4 mL/well to 3 wells of each plate. Each phytochemical component was added at 4 μL (final concentration: 10 μM)/well to one well of each plate. Also, a phytochemical dissolving solution DMSO was added at 4 μL/well to the remaining wells to prepare a control. […]
Serial dilutions of auraptene were added to the cells, and the cell death of the HUVECs caused by heat stress was observed by crystal violet staining.

[2] = test system: CCL-2; assay: CCL-2 concentration in supernatant of lymphocytes under heat stress load (ELISA); type: cell-based, human
Protocol: 10 mL of human peripheral blood was collected and anti-coagulated with heparin, and 10 mL of PBS(−) was added thereto and stirred. 15 mL of Lymphocyte Separation Medium 1077 (PromoCell GmbH) was layered thereon so as not to mix blood thereinto, followed by blood separation at 1600 rpm for 30 minutes in a centrifuge. The mononuclear cell layer thus separated was collected into a dropper, added to 20 mL of a culture medium, and centrifuged at 1500 rpm for 5 minutes in a centrifuge. The supernatant was removed, and then, 20 mL of a culture solution was added to the cells and stirred. The cells were centrifuged again at 1500 rpm for 5 minutes in a centrifuge. The supernatant was removed, and then, 10 mL of a culture medium was added to the cells and stirred. The whole amount was added to a 10-cm dish and incubated at 37° C. for 1 hour in a 5% CO2 environment. […] The solution with the adjusted lymphocyte density was inoculated at 4 mL/well to 2 wells of each 6-well plate. […] Then, the supernatant was recovered into a 1.5-mL Eppendorf tube and centrifuged at 8000 rpm for 5 minutes in a centrifuge. […]
The solution was removed, and each well was washed four times. […] TMB Microwell Peroxidase Substrate was added at 100 μL/well, followed by the absorbance measurement of the reaction solution in a plate reader at 450 nm.

[3] = test system: human vascular endothelial cells (HUVECs); assay: DiOC6 / PI staining and flow cytometry of HUVECs under heat stress load; type: cell-based; settings: heat stress load 40° C. for 2 days, flow cytometry, vs DMSO
Protocol: Two days later, the culture solution of each well was removed with an aspirator. […] The supernatant was removed, and then, 5 mL of a culture medium at 37° C. was added to the cells and stirred. After the stirring, DiOC6 (final concentration: 80 nM) was added to each 15-mL tube and reacted at the same temperature as the culture temperature for 30 minutes.
The supernatant was removed, and then, 1 mL of a culture medium was added to the cells, and 2 μL of PI (Sigma-Aldrich Co. LLC) was added. The cells thus supplemented were transferred to a FACS tube and measured in a flow cytometer (BD).
In order to quantify the effects, the cytotoxicity suppressive effects of auraptene (component A) and tangeretin (component T) inhibiting the cell death caused by the load of heat stress were quantified using DiOC6 staining and flow cytometry as described above. The DiOC6 dye is a reagent for measuring mitochondrial activity and is a reagent that can perform measurement based on the attenuation of the amount of fluorescence by cytotoxicity (cell death, etc.).

[4] = test system: fat droplets in human vascular endothelial cells (HUVECs); assay: Intracellular fat droplets, BODIPY staining, confocal microscopy; type: cell-based
Protocol: Then, nine 35-mm dishes were provided, and 2 mL/dish of the solution with the adjusted HUVEC density was inoculated. Auraptene (10 mM) and tangeretin (10 mM) were each added at 2 μL (final concentration: 10 μM)/dish to three dishes. Also, DMSO was added at 2 μL/dish to the remaining 3 dishes to prepare a control.
The supernatant of the HUVECs cultured in each 35-mm dish was removed, and 2 mL/dish of 4% paraformaldehyde in a phosphate buffer solution was added. The cells were left standing at room temperature for 1 hour for cell fixation. The solution was removed, and then, the cells were rinsed twice. 1 mL/dish of BODIPY diluted 2000-fold with a FACS buffer was added, and the cells were left standing at room temperature for 30 minutes in the dark for reaction.
The solution was removed, and then, the cells were rinsed twice. Two drops of Diamond Antifade Mountant with DAPI were added to the cells, and a round glass cover was put on the cells, followed by fluorescence photographing under a confocal laser scanning microscope.

[5] = Table 2 summary, HUVECs 40° C., 37° C. as comparative control

With `CC(C)=CCC/C(C)=C/COc1ccc2ccc(=O)oc2c1` [auraptene, 7-geranyloxycoumarin] the “cell survival by crystal violet staining” value ([1]; HUVECs cultured at 40° C. for 3 days, vs DMSO) was “evidently increased cell survival”, the concentration at which the cell death suppressive effect was confirmed (value in brackets) ([1]; HUVECs, 40° C. for 3 days, crystal violet staining) was 600 nM and the “concentration at which the cell death suppressive effect was confirmed” value ([1]; HUVECs, 40° C. for 3 days, serial dilutions, crystal violet staining) was 0.6 µM. For the same compound, the “Cytotoxicity (cell death)” value [1, 5] was “Suppressed”, the “CCL-2 sample A” value ([2]; peripheral blood lymphocytes sample A, 40° C., auraptene 10 μM, non-addition 61 ± 0.2) was 32 ± 1.7 pg/mL and the “production of CCL-2” value ([2]; peripheral blood lymphocytes under heat stress load, vs DMSO, p<0.05) was “significantly suppressed”. For the same compound, the “number of DiOC6 staining-positive cells (suppression of cytotoxicity, cell death)” value [3] was “increased the number of DiOC6 staining-positive cells”, the “amount of fat droplets under heat stress load” value ([4]; HUVECs, 40° C. for 2 days, 10 μM, BODIPY, vs DMSO) was “decrease in the amount of fat droplets; also recorded: decreased the amount of fat droplets” and the “amount of fat droplets at usual culture” value ([4]; HUVECs, usual culture (37° C.), 10 μM, vs DMSO) was “no change in the amount of fat droplets”. The “Amount of fat droplets” value [4, 5] was “Decreased”.
